Experimental data: ChEMBL document CHEMBL1157610, “Bis(morpholino-1,3,5-triazine) derivatives: potent adenosine 5'-triphosphate competitive phosphatidylinositol-3-kinase/mammalian target of rapamycin inhibitors: discovery of compound 26 (PKI-587), a highly efficacious dual inhibitor” (J Med Chem, 2010)
≈ marks a conversion by molar mass, not a printed value. Calls of active or inactive are those of the source. The calls are words filed in the database; no cut-off is given here.

Legend:
[1] = target: Phosphatidylinositol 4,5-bisphosphate 3-kinase catalytic subunit alpha isoform (Homo sapiens, UniProt P42336)
[2] = target: Phosphatidylinositol 4,5-bisphosphate 3-kinase catalytic subunit gamma isoform (Homo sapiens, UniProt P48736)
[3] = target: Serine/threonine-protein kinase mTOR (Homo sapiens, UniProt P42345)
MDA-MB-361 [4] = assay: cells; conditions: Homo sapiens
cells = conditions: Homo sapiens, PC3MM2
[5] = Solubility at pH 7.4; assay type: physicochemical; conditions: buffer
[6] = Membrane permeability at pH 7.4 by PAMPA assay; assay type: ADME; conditions: read-out: permeability
[7] = target: T1, Nitric oxide synthase 3 (Homo sapiens) (UniProt P29474); assay: Inhibition of eNOS phosphorylation in human MDA-MB-361 cells by Western blotting; assay type: cell-based
T1 sequence (whole entry): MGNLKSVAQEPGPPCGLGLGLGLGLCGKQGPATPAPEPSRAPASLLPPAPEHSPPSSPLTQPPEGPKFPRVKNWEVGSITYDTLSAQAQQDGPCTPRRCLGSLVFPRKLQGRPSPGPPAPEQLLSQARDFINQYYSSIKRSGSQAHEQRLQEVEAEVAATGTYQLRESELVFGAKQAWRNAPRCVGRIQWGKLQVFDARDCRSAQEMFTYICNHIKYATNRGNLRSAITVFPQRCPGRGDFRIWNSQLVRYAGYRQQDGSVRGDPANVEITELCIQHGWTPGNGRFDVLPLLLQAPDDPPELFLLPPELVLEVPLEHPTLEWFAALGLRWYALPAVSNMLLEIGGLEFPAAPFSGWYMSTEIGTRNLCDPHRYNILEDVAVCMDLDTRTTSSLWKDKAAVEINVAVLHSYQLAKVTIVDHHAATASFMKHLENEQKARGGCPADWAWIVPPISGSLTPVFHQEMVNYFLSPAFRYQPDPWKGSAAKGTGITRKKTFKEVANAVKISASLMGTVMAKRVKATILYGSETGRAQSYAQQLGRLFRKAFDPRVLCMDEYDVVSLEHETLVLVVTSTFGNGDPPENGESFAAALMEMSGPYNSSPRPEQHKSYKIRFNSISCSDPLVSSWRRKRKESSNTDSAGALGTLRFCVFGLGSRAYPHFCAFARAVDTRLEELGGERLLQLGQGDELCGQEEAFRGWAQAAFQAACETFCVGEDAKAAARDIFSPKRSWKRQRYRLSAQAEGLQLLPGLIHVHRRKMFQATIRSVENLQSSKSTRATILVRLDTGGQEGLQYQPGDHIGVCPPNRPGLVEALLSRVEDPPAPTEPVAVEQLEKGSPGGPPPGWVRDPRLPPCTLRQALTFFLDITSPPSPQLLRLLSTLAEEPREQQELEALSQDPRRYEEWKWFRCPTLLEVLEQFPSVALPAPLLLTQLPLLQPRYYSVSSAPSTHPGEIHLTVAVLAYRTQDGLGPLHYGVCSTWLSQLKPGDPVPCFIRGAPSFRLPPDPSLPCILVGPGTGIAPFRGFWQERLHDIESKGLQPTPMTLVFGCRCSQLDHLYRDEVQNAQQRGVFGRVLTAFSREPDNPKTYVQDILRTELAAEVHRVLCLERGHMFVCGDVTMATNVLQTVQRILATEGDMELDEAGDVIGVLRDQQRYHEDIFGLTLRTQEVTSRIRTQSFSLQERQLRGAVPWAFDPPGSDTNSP

[8] = target: Proline-rich AKT1 substrate 1 (Homo sapiens) (UniProt Q96B36); assay: Inhibition of PARS40 phosphorylation in human MDA-MB-361 cells by Western blotting; assay type: cell-based
[9] = target: Glycogen synthase kinase-3 (Homo sapiens) (UniProt P49840+P49841); assay: Inhibition of GSK3 kinase phosphorylation in human MDA-MB-361 cells by Western blotting; assay type: cell-based
[10] = Half life in mouse at 25 mg/kg, iv; assay type: ADME, organism-based; parameters: dose 25 mg/kg, route intravenous; conditions: in vivo
[11] = Last AUC in mouse at 25 mg/kg, iv; assay type: ADME, organism-based; parameters: dose 25 mg/kg, route intravenous; conditions: in vivo
[12] = AUC (0 to infinity) in mouse at 25 mg/kg, iv; assay type: ADME, organism-based; parameters: dose 25 mg/kg, route intravenous, time infinity; conditions: plasma
[13] = Plasma clearance in mouse at 25 mg/kg, iv; assay type: ADME, organism-based; parameters: dose 25 mg/kg, route intravenous
[14] = Volume of distribution at steady state in mouse at 25 mg/kg, iv; assay type: ADME, organism-based; parameters: dose 25 mg/kg, route intravenous; conditions: in vivo, read-out: Vdss
[15] = […] in mouse at 25 mg/kg, iv; assay type: ADME, organism-based; parameters: dose 25 mg/kg, route intravenous; conditions: in vivo
[16] = target: RAC-alpha serine/threonine-protein kinase (Homo sapiens) (UniProt P31749); assay: Inhibition of Akt T308 phosphorylation in human MDA-MB-361 cells xenografted mouse model upto 36 hrs; assay type: cell-based
[17] = target: RAC-alpha serine/threonine-protein kinase (Homo sapiens) (UniProt P31749); assay: Inhibition of Akt S473 phosphorylation in human MDA-MB-361 cells xenografted mouse model upto 36 hrs; assay type: cell-based
MDA-MB-361 [18] = assay: Induction of PARP cleavage in human MDA-MB-361 cells xenografted mouse model upto 18 hrs; assay type: functional, cell-based
MDA-MB-361 [19] = assay: Antitumor activity against human MDA-MB-361 cells xenografted mouse model assessed as reduction in tumor volume at 20 mg/kg, iv on day 1, 5, 9; assay type: functional, organism-based; parameters: dose 20 mg/kg
Mus musculus [20] = assay: Antitumor activity against human MDA-MB-361 cells xenografted mouse model assessed as minimum effective dose; assay type: functional; conditions: read-out: MED
Mus musculus [21] = assay: Antitumor activity against human MDA-MB-361 cells xenografted mouse model assessed as maximum tolerated single dose; assay type: functional
NCI-H1975 = assay: Antitumor activity against human NCI-H1975 cells xenografted orthotopic mouse model assessed as survival at 25 mg/kg once weekly for 7 weeks relative to untreated control; assay type: functional

Chain of Phosphatidylinositol 4,5-bisphosphate 3-kinase catalytic subunit gamma isoform (P48736 whole entry, canonical isoform): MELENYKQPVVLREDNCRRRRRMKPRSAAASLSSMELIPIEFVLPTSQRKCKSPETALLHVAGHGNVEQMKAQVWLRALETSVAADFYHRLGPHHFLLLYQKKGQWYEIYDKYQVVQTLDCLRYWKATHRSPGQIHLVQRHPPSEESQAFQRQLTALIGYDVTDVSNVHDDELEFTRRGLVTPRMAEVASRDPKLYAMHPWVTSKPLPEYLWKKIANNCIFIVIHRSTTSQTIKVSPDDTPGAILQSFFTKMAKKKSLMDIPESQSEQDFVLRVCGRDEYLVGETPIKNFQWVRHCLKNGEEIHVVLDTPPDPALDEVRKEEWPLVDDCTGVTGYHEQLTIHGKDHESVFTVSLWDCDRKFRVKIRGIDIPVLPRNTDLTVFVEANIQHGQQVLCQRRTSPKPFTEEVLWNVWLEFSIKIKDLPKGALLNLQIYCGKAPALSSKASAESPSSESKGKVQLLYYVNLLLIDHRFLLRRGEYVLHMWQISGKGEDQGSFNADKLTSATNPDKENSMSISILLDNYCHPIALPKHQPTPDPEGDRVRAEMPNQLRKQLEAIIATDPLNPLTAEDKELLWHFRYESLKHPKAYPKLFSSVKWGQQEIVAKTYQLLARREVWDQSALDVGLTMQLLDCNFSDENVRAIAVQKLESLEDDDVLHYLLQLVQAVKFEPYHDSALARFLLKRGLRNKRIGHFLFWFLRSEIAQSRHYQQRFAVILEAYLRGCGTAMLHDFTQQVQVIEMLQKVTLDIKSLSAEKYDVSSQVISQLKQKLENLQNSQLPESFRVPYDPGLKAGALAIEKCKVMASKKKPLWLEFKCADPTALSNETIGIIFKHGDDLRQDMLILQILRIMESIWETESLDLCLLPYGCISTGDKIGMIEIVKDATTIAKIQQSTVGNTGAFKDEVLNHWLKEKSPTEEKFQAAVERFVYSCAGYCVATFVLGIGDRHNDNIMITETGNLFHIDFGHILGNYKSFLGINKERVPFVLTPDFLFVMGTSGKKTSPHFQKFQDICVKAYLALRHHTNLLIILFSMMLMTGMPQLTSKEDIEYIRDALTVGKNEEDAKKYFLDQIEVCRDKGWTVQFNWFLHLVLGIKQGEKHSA
Chain of Phosphatidylinositol 4,5-bisphosphate 3-kinase catalytic subunit alpha isoform (P42336 whole entry, canonical isoform): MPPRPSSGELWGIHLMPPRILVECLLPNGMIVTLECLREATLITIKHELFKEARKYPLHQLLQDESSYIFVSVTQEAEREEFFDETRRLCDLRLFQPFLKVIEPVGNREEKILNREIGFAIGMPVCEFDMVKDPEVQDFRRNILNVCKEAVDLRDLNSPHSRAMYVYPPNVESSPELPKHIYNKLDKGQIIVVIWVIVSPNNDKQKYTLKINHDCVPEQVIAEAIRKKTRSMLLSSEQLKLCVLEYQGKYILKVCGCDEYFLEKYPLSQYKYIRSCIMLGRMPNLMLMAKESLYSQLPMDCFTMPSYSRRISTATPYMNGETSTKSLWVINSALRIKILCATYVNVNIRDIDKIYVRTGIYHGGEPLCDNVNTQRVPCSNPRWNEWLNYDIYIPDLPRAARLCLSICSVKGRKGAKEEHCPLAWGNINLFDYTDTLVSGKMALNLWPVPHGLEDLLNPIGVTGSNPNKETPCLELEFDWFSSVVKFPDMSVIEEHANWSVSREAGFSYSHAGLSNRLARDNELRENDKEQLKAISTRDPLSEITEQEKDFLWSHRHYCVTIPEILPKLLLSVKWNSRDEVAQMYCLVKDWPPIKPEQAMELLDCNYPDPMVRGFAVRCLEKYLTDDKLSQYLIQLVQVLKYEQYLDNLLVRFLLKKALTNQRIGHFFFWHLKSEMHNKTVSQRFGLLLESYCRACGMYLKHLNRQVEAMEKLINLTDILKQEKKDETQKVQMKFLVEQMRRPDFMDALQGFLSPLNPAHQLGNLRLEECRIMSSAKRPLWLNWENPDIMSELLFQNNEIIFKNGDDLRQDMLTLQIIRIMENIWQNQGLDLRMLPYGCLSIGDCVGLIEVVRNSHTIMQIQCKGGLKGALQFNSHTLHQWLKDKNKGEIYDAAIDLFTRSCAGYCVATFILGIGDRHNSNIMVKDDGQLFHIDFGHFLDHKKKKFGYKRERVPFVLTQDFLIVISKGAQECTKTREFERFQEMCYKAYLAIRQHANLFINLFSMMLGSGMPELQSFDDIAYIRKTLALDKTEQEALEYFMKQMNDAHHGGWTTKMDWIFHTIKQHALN
Chain of RAC-alpha serine/threonine-protein kinase (Homo sapiens) (P31749 whole entry): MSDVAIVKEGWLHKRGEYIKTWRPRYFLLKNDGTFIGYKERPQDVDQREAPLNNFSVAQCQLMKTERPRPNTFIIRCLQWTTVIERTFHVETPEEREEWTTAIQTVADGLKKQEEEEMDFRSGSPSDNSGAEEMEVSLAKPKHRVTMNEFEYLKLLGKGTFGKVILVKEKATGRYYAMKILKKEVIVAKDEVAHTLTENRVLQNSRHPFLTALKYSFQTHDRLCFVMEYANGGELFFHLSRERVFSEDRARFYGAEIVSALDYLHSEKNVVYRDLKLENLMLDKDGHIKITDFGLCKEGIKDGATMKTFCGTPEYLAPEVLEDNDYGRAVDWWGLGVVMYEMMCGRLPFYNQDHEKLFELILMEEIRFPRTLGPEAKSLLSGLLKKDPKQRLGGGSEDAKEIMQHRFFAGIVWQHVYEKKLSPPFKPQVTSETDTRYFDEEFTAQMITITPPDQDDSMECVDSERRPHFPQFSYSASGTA
Chain of Glycogen synthase kinase-3 (Homo sapiens) (P49840 whole entry, looked up): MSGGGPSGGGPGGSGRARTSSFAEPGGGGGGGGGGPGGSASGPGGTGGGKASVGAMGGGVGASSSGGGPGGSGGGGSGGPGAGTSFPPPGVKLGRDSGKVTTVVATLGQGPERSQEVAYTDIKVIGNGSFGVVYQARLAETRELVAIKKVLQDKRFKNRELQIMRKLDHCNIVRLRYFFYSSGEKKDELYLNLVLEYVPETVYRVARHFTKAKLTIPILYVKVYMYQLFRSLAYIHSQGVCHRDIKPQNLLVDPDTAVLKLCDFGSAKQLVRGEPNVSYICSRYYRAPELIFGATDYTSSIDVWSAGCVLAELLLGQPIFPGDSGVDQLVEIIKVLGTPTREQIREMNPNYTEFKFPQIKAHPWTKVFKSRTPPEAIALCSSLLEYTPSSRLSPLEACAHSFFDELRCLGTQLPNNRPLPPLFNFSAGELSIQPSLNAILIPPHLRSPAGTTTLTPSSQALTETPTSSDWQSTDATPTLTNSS
Chain of Glycogen synthase kinase-3 (Homo sapiens) (P49841 whole entry, looked up): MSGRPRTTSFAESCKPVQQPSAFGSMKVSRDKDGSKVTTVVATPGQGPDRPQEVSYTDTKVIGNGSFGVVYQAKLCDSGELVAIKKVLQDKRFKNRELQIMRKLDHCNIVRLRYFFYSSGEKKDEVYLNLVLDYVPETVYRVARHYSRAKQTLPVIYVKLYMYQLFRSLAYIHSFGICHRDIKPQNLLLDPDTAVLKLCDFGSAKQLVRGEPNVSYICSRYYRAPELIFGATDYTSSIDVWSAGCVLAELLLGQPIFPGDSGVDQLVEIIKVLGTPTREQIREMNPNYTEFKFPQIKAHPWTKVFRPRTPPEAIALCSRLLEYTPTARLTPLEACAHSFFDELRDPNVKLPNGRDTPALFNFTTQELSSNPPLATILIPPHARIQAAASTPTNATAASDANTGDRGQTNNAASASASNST

Compound | IC50 [1] [µM] | IC50 [2] [µM] | IC50 [3] [µM] | IC50 (MDA-MB-361 [4]) [µM] | IC50 (cells) [µM] | solubility [5] [µg/mL] | Papp [6] [×10⁻⁶ cm/s] | also measured
CN1CCN(C(=O)c2ccc(NC(=O)Nc3ccc(-c4nc(N5CCOCC5)nc(N5CCOCC5)n4)cc3)cc2)CC1 | 0.0005 | 0.009 | 0.0014 | 0.01 | 0.013 | – | – | –
CNC(=O)c1ccc(NC(=O)Nc2ccc(-c3nc(N4CCOCC4)nc(N4CCOCC4)n3)cc2)cc1 | – | – | – | – | 0.024 | 1 (≈ 1.93 µM) | – | –
O=C(Nc1ccc(-c2nc(N3CCOCC3)nc(N3CCOCC3)n2)cc1)Nc1ccc(F)cc1F | – | – | – | 0.794 | 5.63 | 1 (≈ 2.01 µM) | – | –
O=C(Nc1ccc(CCO)cc1)Nc1ccc(-c2nc(N3CCOCC3)nc(N3CCOCC3)n2)cc1 | 0.0015 | 0.0215 | 0.0018 | 0.036 | 0.039 | – | – | –
O=C(Nc1ccc(Cl)cc1)Nc1ccc(-c2nc(N3CCOCC3)nc(N3CCOCC3)n2)cc1 | – | – | 0.0067 | 0.407 | 0.293 | 1 (≈ 2.02 µM) | – | –
O=C(Nc1ccc(C(=O)O)cc1)Nc1ccc(-c2nc(N3CCOCC3)nc(N3CCOCC3)n2)cc1 | – | – | 0.0015 | 0.816 | 0.028 | 52 (≈ 103 µM) | – | –
O=C(Nc1ccc(CO)cc1)Nc1ccc(-c2nc(N3CCOCC3)nc(N3CCOCC3)n2)cc1 | – | – | – | 0.03 | 0.03 | – | 0.2 | –
CNC(=O)Nc1ccc(-c2nc(N3CCOCC3)nc(N3CCOCC3)n2)cc1 | 0.35 | 0.789 | 0.0113 | – | – | – | – | –
COC(=O)c1ccc(NC(=O)Nc2ccc(-c3nc(N4CCOCC4)nc(N4CCOCC4)n3)cc2)cc1 | – | – | – | 0.115 | 0.045 | 1 (≈ 1.92 µM) | 0.6 | –
O=C(Nc1ccc(C(=O)N2CCC(N3CCCCC3)CC2)cc1)Nc1ccc(-c2nc(N3CCOCC3)nc(N3CCOCC3)n2)cc1 | – | – | 0.0007 | 0.003 | 0.007 | 31 (≈ 47.3 µM) | – | –
O=C(Nc1ccc(-c2nc(N3CCOCC3)nc(N3CCOCC3)n2)cc1)Nc1cccs1 | – | – | – | – | 0.218 | 2 (≈ 4.28 µM) | 2.4 | –
O=C(Nc1ccncc1)Nc1ccc(-c2nc(N3CCOCC3)nc(N3CCOCC3)n2)cc1 | – | – | 0.0012 | 0.045 | 0.043 | – | 1.4 | –
O=C(Nc1ccc(-c2nc(N3CCOCC3)nc(N3CCOCC3)n2)cc1)Nc1cccnc1 | 0.0017 | – | 0.0012 | – | 0.092 | – | 0.5 | –
CN(C)CCNC(=O)c1ccc(NC(=O)Nc2ccc(-c3nc(N4CCOCC4)nc(N4CCOCC4)n3)cc2)cc1 | 0.0004 | 0.008 | 0.0005 | 0.003 | 0.011 | 7 (≈ 12.2 µM) | 0.1 | –
CN(C)C1CCN(C(=O)c2ccc(NC(=O)Nc3ccc(-c4nc(N5CCOCC5)nc(N5CCOCC5)n4)cc3)cc2)CC1 [GEDATOLISIB] | – | – | – | – | – | 14 (≈ 22.7 µM) | 0.1 | Activity [7]: Active; Activity [8]: Active; Activity [9]: Active; half-life [10]: 14.4 h; AUC [11]: 42600 ng·h/mL; AUC(0-inf) [12]: 57900 ng·h/mL; clearance [13]: 7 mL/min/kg; Vd [14]: 7.2 L/kg; MRT [15]: 16.7 h; Activity [16]: Active; Activity [17]: Active; Activity (MDA-MB-361 [18]): Active; Activity (MDA-MB-361 [19]): Active; minimal effective dose (Mus musculus [20]): 3 mg/kg; MTD (Mus musculus [21]): 30 mg/kg; Activity (NCI-H1975): 90%
O=C(Nc1ccc(-c2nc(N3CCOCC3)nc(N3CCOCC3)n2)cc1)NN1CCCCC1 | 1.52 | 7.47 | 0.46 | – | – | 100 (≈ 213 µM) | 0.01 | –
O=C(Nc1ccc(C(=O)N2CCC(N3CCCC3)CC2)cc1)Nc1ccc(-c2nc(N3CCOCC3)nc(N3CCOCC3)n2)cc1 | 0.0007 | 0.01 | 0.0008 | 0.003 | 0.0083 | 33.5 (≈ 52.2 µM) | – | –
Cc1ccc(NC(=O)Nc2ccc(-c3nc(N4CCOCC4)nc(N4CCOCC4)n3)cc2)cc1 | – | – | – | 0.2 | 0.364 | – | 5.6 | –
CN(C)CCN(C)C(=O)c1ccc(NC(=O)Nc2ccc(-c3nc(N4CCOCC4)nc(N4CCOCC4)n3)cc2)cc1.Cl | – | 0.009 | 0.0006 | 0.0098 | 0.0183 | 9 | 0.03 | –
CCNC(=O)Nc1ccc(-c2nc(N3CCOCC3)nc(N3CCOCC3)n2)cc1 | – | – | 0.01 | – | – | 1 (≈ 2.42 µM) | 0.7 | –
O=C(Nc1ccccc1)Nc1ccc(-c2nc(N3CCOCC3)nc(N3CCOCC3)n2)cc1 | – | – | 0.0039 | 0.056 | 0.107 | – | 0.2 | –
O=C(Nc1ccc(-c2nc(N3CCOCC3)nc(N3CCOCC3)n2)cc1)Nc1ccnnc1 | – | – | – | 0.038 | 0.021 | 1 (≈ 2.16 µM) | – | –
O=C(Nc1ccc(F)cc1)Nc1ccc(-c2nc(N3CCOCC3)nc(N3CCOCC3)n2)cc1 | 0.0065 | – | 0.0039 | 0.118 | 0.193 | – | 1 | –
